Measurements reported in patent US20260297060A1, “COMPOUNDS FOR THE DEGRADATION OF MUTANT BRAF” (C4 THERAPEUTICS, INC., priority 2023, published 2026).
Like-named read-outs stand apart in the source and are kept apart here.

Columns and labels:
[1] = test system: A375 human melanoma xenografts; assay: Example 7 efficacy study in A375 human melanoma xenografts (tumor volume, T/C, TGI); assay type: in vivo, BALB/c nude mice; conditions: 10 mg/kg, p.o., BID × 14 days; for T/C / TGI / Tumor Size on PG-D14 (mean ± SEM): PG-D14
Description: For efficacy study, agents were tested in the A375 human melanoma xenografts. Compound 118, Compound 156, and Compound 180 were administered to BALB/c nude mice bearing A375 xenografts from day 0 and dosed p.o. twice per day (BID). Compound 141 was administered from day 0 and dosed p.o. twice per day (BID) or dosed p.o. daily (QD) from day 1. Compound 141, Compound 118, Compound 156, and Compound 180 were dosed at 10 mg/kg for 14 days. The known BRAF inhibitor Dabrafenib was used as a positive control. Dabrafenib was administered from day 1 and dosed p.o. daily (QD) for 14 days and dosed at 100 mg/kg.
The A375 tumor cells were maintained in vitro in DMEM medium supplemented with […] and 1% Penicillin-Streptomycin at 37° C. in an atmosphere of 5% CO2 in air. The tumor cells were routinely subcultured twice weekly. The cells growing in an exponential growth phase were harvested and counted for tumor inoculation.
Each mouse was inoculated subcutaneously at the right flank with A375 tumor cells (5×10^6) in 0.2 mL of PBS with Matrigel (PBS: Matrigel=1:1) supplemented for tumor development. Animals were grouped when the average tumor volume reached 246 mm^3 for efficacy study and 390 mm^3 for PKPD study on day 17 after tumor inoculation. The test articles administration and the animal numbers in each group are shown in the above experimental tables.
Prior to the onset of drug treatment, mice were measured for tumor size in two dimensions using a caliper, and the tumor volume (mm^3) was calculated using formula V=0.5 a×b^2 where a and b are the long and short diameters of the tumor in mm, respectively. Mice were randomized into different treatment groups based on the tumor volume.
The major endpoint was to see if the tumor growth could be delayed or mice could be cured. The tumor size was then used for calculations of T/C value. The T/C value (in percent) is an indication of antitumor effectiveness; T and C are the mean volumes of the treated and control groups, respectively on specified day.
TGI was calculated for each group using the formula: TGI (%)=[1−(Ti−T0)/(Ci−C0)]×100; Ti is the average tumor volume of a treatment group on a given day, T0 is the average tumor volume of the treatment group on the day of treatment start, Ci is the average tumor volume of the vehicle control group on the same day with Ti, and C0 is the average tumor volume of the vehicle group on the day of treatment start.

[2] = Example 8 pharmacokinetics assay for PKPD study (plasma, tumor, liver); assay type: in vivo, BALB/c nude mice; conditions: 10 mg/kg, p.o., single dose; for concentration at 6 h / concentration at 1 h / concentration at 12 h / concentration at 24 h: mouse, po
Description: For the PK and PD study, agents were administered to BALB/c nude mice bearing A375 human melanoma xenografts tumors. encorafenib, Compound 8, Compound 26, Compound 38, and Compound 39 were dosed p.o. once on day 1. Encorafenib was dosed at 35 mg/kg, Compound 8, Compound 26, Compound 38, and Compound 39 were dosed at 10 mg/kg. This study was non-GLP.
The plasma samples were collected at predetermined time points for PK analysis. For non-termination plasma collection, blood samples were collected into the 1.5 mL Eppendorf tubes containing 3 μL of 0.5 M EDTA-K2. For termination plasma collection, the mice were euthanized at predetermined time points post the treatment and the blood samples were collected into the 1.5 mL Eppendorf tubes containing 15 μL of 0.5 M EDTA-K2. And then the anticoagulant blood samples were centrifuged at 2,500 g at 4° C. for 15 minutes. The plasma samples were separated into 2 aliquots. The 1st was used for PK analysis, and the 2nd served as backup. The samples were stored at −80° C. before bioanalysis.
The tumor samples were collected at predetermined time points for PK and WB analysis. The tumor was dissected out and split into 3 parts. The 1st part was used for PK analysis, the 2nd part was used for WB analysis and the last one served as backup for study. The samples were transferred into pre-labeled tubes and quickly froze in liquid nitrogen within 2 minutes after dissection. The samples were stored at −80° C. before bioanalysis.
Liver samples were collected at predetermined time points for PK analysis. The left lobe of the liver was dissected out and split into 2 parts. The 1st part was used for PK analysis and the 2nd part served as the backup for the study. The samples were transferred into pre-labeled tubes and quickly froze in liquid nitrogen within 2 minutes after dissection. The samples were stored at −80° C. before bioanalysis.
The harvested plasma and liver samples were processed for pharmacokinetics analysis by LC-MS/MS with a concentration range of 0.200~200 ng/mL for encorafenib in plasma and liver homogenate, and 0.100-100 ng/ml in tumor homogenate, 1.00-1000 ng/mL for Compound 8 in plasma and 0.500~500 ng/ml in tumor and liver homogenate, 50.0~50,000 ng/mL for Compound 26 and Compound 38 in plasma, 5.0~5000 ng/ml in liver and 2.00~2000 ng/ml in tumor homogenate, 1.00-1000 ng/mL for Compound 39 in plasma and 0.500~500 ng/mL in liver and tumor homogenate.

[3] = liver, 6 h, read-out: Concentration in Liver (mean ± SEM)
[4] = plasma, 1 h, read-out: Concentration in Plasma (mean ± SEM)
[5] = plasma, 6 h, read-out: Concentration in Plasma (mean ± SEM)
[6] = plasma, 12 h, read-out: Concentration in Plasma (mean ± SEM)
[7] = tumor, 1 h, read-out: Concentration in Tumor (mean ± SEM)
[8] = tumor, 6 h, read-out: Concentration in Tumor (mean ± SEM)
[9] = tumor, 12 h, read-out: Concentration in Tumor (mean ± SEM)
[10] = liver, 12 h, read-out: Concentration in Liver (mean ± SEM)
[11] = plasma, 24 h, read-out: Concentration in Plasma (mean ± SEM)
[12] = tumor, 24 h, read-out: Concentration in Tumor (mean ± SEM)

CCN(C)S(=O)(=O)Nc1ccc(F)c(Oc2ccc3ncc(C4CC5(CCN(C6CCC(c7cc8c(cc7F)c(N7CCC(=O)NC7=O)nn8C)CC6)CC5)C4)nc3c2)c1C#N (single isomer, unassigned) [Compound 180, 7-[2-cyano-3-[[ethyl(methyl)sulfamoyl]amino]-6-fluoro-phenoxy]-2-[7-[4-[3-(2,4-dioxohexahydropyrimidin-1-yl)-5-fluoro-1-methyl-indazol-6-yl]cyclohexyl]-7-azaspiro[3.5]nonan-2-yl]quinoxaline]
T/C [1]: 7.2% | TGI [1]: 113.9% | Tumor Size on PG-D14 (mean ± SEM) [1]: 96 ± 11 mm^3 | Tumor Volume (mean ± SEM) ([1]; day 0): 247 ± 16 mm^3 | Tumor Volume (mean ± SEM) ([1]; day 3): 319 ± 22 mm^3 | Tumor Volume (mean ± SEM) ([1]; day 7): 222 ± 18 mm^3 | Tumor Volume (mean ± SEM) ([1]; day 10): 151 ± 16 mm^3 | Tumor Volume (mean ± SEM) ([1]; day 14): 96 ± 11 mm^3

CCN(C)S(=O)(=O)Nc1ccc(F)c(Oc2ccc3ncc(OCC4CCN(C5CCC(c6cc7c(cc6F)c(N6CCC(=O)NC6=O)nn7C)CC5)CC4)nc3c2)c1C#N (single isomer, unassigned) [Compound 118, 7-[2-cyano-3-[[ethyl(methyl)sulfamoyl]amino]-6-fluoro-phenoxy]-2-[[1-[4-[3-(2,4-dioxohexahydropyrimidin-1-yl)-5-fluoro-1-methyl-indazol-6-yl]cyclohexyl]-4-piperidyl]methoxy]quinoxaline]
T/C [1]: 6.1% | TGI [1]: 115.3% | Tumor Size on PG-D14 (mean ± SEM) [1]: 81 ± 8 mm^3 | Tumor Volume (mean ± SEM) ([1]; day 0): 247 ± 14 mm^3 | Tumor Volume (mean ± SEM) ([1]; day 3): 326 ± 20 mm^3 | Tumor Volume (mean ± SEM) ([1]; day 7): 192 ± 20 mm^3 | Tumor Volume (mean ± SEM) ([1]; day 10): 117 ± 13 mm^3 | Tumor Volume (mean ± SEM) ([1]; day 14): 81 ± 8 mm^3

CCN(C)S(=O)(=O)Nc1ccc(F)c(Oc2ccc3ncn([C@H]4COC5(CCC(N6CCC(c7cc8c(cc7F)c(N7CCC(=O)NC7=O)nn8C)C(F)(F)C6)CC5)C4)c(=O)c3c2)c1C#N (single isomer, unassigned) [Compound 39]
Concentration in Plasma (mean ± SEM) ([2]; 1 h, 60 min): 34700 ± 3785 ng/mL | Concentration in Tumor (mean ± SEM) ([2]; 1 h, 60 min): 3423 ± 648 ng/g | Concentration in Liver (mean ± SEM) ([2]; 6 h, 360 min): 18200 ± 1735 ng/g | Concentration in Plasma (mean ± SEM) ([2]; 6 h, 360 min): 15700 ± 1358 ng/mL | Concentration in Tumor (mean ± SEM) ([2]; 6 h, 360 min): 4713 ± 256 ng/g | Concentration in Liver (mean ± SEM) ([2]; 12 h, 720 min): 5610 ± 455 ng/g | Concentration in Plasma (mean ± SEM) ([2]; 12 h, 720 min): 3973 ± 202 ng/mL | Concentration in Tumor (mean ± SEM) ([2]; 12 h, 720 min): 1510 ± 43.6 ng/g | Concentration in Plasma (mean ± SEM) ([2]; 24 h, 1440 min): 171 ± 20.8 ng/mL | Concentration in Tumor (mean ± SEM) ([2]; 24 h, 1440 min): 79.3 ± 25.3 ng/g

CCN(C)S(=O)(=O)Nc1ccc(F)c(Oc2ccc3ncn([C@H]4COC5(CCC(N6CCC(c7cc8c(cc7F)c(N7CCC(=O)NC7=O)nn8C)C(F)(F)C6)CC5)C4)c(=O)c3c2)c1C#N (single isomer, unassigned) [Compound 38]
Concentration in Liver (mean ± SEM) ([2]; 12 h, 720 min): 11243 ± 2595 ng/g | Concentration in Plasma (mean ± SEM) ([2]; 24 h, 1440 min): 1797 ± 63.3 ng/mL | Concentration in Tumor (mean ± SEM) ([2]; 24 h, 1440 min): 369 ± 42.6 ng/g | concentration at 6 h [2, 3]: 25500 ± 3820 ng/g | concentration at 1 h [2, 4]: 32000 ± 3960 ng/mL | concentration at 6 h [2, 5]: 16400 ± 1500 ng/mL | concentration at 12 h [2, 6]: 6810 ± 795 ng/mL | concentration at 1 h [2, 7]: 3320 ± 523 ng/g | concentration at 6 h [2, 8]: 3830 ± 736 ng/g | concentration at 12 h [2, 9]: 1990 ± 415 ng/g

CCN(C)S(=O)(=O)Nc1ccc(F)c(Oc2ccc3ncn([C@H]4COC5(CCN(C6CC7(C6)CN(c6cc8c(cc6F)c(N6CCC(=O)NC6=O)nn8C)C7)CC5)C4)c(=O)c3c2)c1C#N [Compound 26, (3R)-3-[6-[2-cyano-3-[[ethyl(methyl)sulfamoyl]amino]-6-fluoro-phenoxy]-4-oxo-quinazolin-3-yl]-8-[2-[3-(2,4-dioxohexahydropyrimidin-1-yl)-5-fluoro-1-methyl-indazol-6-yl]-2-azaspiro[3.3]heptan-6-yl]-1-oxa-8-azaspiro[4.5]decane]
concentration at 6 h [2, 3]: 11800 ± 551 ng/g | concentration at 12 h [2, 10]: 3250 ± 601 ng/g | concentration at 1 h [2, 4]: 29100 ± 733 ng/mL | concentration at 6 h [2, 5]: 20800 ± 2930 ng/mL | concentration at 12 h [2, 6]: 4600 ± 1140 ng/mL | concentration at 24 h [2, 11]: 162 ± 15.3 ng/mL | concentration at 1 h [2, 7]: 1900 ± 320 ng/g | concentration at 6 h [2, 8]: 3770 ± 478 ng/g | concentration at 12 h [2, 9]: 1400 ± 226 ng/g | concentration at 24 h [2, 12]: 64.9 ± 19.9 ng/g

CCN(C)S(=O)(=O)Nc1ccc(F)c(Oc2ccc3ncn(C4CC5(CCN(C6CCC(c7cc8c(cc7F)c(N7CCC(=O)NC7=O)nn8C)CC6)CC5)C4)c(=O)c3c2)c1C#N (single isomer, unassigned) [Compound 8, 6-[2-cyano-3-[[ethyl(methyl)sulfamoyl]amino]-6-fluoro-phenoxy]-3-[7-[4-[3-(2,4-dioxohexahydropyrimidin-1-yl)-5-fluoro-1-methyl-indazol-6-yl]cyclohexyl]-7-azaspiro[3.5]nonan-2-yl]-4-oxo-quinazoline]
concentration at 6 h [2, 3]: 379 ± 79.8 ng/g | concentration at 12 h [2, 10]: 74.8 ± 11.3 ng/g | concentration at 1 h [2, 4]: 2940 ± 149 ng/mL | concentration at 6 h [2, 5]: 339 ± 60.3 ng/mL | concentration at 12 h [2, 6]: 64.7 ± 16.8 ng/mL | concentration at 24 h [2, 11]: 1.27 ± 0.2 ng/mL | concentration at 1 h [2, 7]: 394 ± 17.6 ng/g | concentration at 6 h [2, 8]: 139 ± 21.7 ng/g | concentration at 12 h [2, 9]: 39.1 ± 5.77 ng/g | concentration at 24 h [2, 12]: 8.52 ng/g
